The structures appear in SMILES notation.

In this assay the target is T1, SIRT1 (Homo sapiens, UniProt Q96EB6).
T1 sequence (Q96EB6 1-747): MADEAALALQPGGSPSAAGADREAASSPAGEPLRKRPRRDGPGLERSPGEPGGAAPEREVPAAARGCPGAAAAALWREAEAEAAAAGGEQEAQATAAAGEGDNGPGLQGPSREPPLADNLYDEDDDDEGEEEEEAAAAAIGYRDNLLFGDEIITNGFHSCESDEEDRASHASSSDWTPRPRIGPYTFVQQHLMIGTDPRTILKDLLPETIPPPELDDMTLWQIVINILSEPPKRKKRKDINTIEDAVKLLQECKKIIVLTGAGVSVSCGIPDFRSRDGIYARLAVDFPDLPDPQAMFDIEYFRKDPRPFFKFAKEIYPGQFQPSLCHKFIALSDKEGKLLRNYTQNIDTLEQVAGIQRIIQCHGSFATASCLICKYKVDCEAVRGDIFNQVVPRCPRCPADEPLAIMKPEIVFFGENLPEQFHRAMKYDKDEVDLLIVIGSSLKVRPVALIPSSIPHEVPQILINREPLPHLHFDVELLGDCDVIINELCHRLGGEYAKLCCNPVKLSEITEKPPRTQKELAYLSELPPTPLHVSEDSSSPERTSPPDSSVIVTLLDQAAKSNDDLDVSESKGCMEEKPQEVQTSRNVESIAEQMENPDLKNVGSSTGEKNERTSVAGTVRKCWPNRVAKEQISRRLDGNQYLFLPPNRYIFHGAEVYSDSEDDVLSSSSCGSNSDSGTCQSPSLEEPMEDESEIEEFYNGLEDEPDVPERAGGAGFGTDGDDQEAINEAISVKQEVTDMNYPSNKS
Kind of assay: Mass spectrometry based assay to identify modulators of SIRT1 activity (deacetylation of p53-based acetylated peptide substrate). The format is biochemical. Conditions: 10 nM SIRT1, 0.5 μM peptide substrate, 120 μM βNAD+, 25 minutes at 25° C.; for EC1.5: SIRT1 activation. From the text: A mass spectrometry based assay was used to identify modulators of SIRT1 activity. The mass spectrometry based assay utilizes a peptide having 20 amino acid residues as follows: Ac-EE-K(biotin)-GQSTSSHSK(Ac)NleSTEG-K(5TMR)-EE-NH2 (SEQ ID NO: 1) wherein K(Ac) is an acetylated lysine residue and Nle is a norleucine. The peptide is labeled with the fluorophore 5TMR (excitation 540 nm/emission 580 nm) at the C-terminus. The sequence of the peptide substrate is based on p53 with several modifications. In addition, the methionine residue naturally present in the sequence was replaced with the norleucine because the methionine may be susceptible to oxidation during synthesis and purification.
The mass spectrometry assay is conducted as follows: 0.5 μM peptide substrate and 120 μM βNAD^+ is incubated with 10 nM SIRT1 for 25 minutes at 25° C. in a reaction buffer (50 mM Tris-acetate pH 8, 137 mM NaCl, 2.7 mM KCl, 1 mM MgCl2, 5 mM DTT, 0.05% BSA). Test compounds may be added to the reaction as described above. The SirT1 gene is cloned into a T7-promoter containing vector and transformed into BL21(DE3). After the 25 minute incubation with SIRT1, 10 μL of 10% formic acid is added to stop the reaction. Reactions are sealed and frozen for later mass spec analysis. Determination of the mass of the substrate peptide allows for precise determination of the degree of acetylation (i.e. starting material) as compared to deacetylated peptide (product).
A control for inhibition of sirtuin activity is conducted by adding 1 μL of 500 mM nicotinamide as a negative control at the start of the reaction (e.g., permits determination of maximum sirtuin inhibition). A control for activation of sirtuin activity is conducted using 10 nM of sirtuin protein, with 1 μL of DMSO in place of compound, to determine the amount of deacetylation of the substrate at a given timepoint within the linear range of the assay. This timepoint is the same as that used for test compounds and, within the linear range, the endpoint represents a change in velocity.
For the above assay, SIRT1 protein was expressed and purified as follows. The SirT1 gene was cloned into a T7-promoter containing vector and transformed into BL21(DE3). The protein was expressed by induction with 1 mM IPTG as an N-terminal His-tag fusion protein at 18° C. overnight and harvested at 30,000×g. Cells were lysed with lysozyme in lysis buffer (50 mM Tris-HCl, 2 mM Tris[2-carboxyethyl]phosphine (TCEP), 10 μM ZnCl2, 200 mM NaCl) and further treated with sonication for 10 min for complete lysis. The protein was purified over a Ni-NTA column (Amersham) and fractions containing pure protein were pooled, concentrated and run over a sizing column (Sephadex S200 26/60 global). The peak containing soluble protein was collected and run on an Ion-exchange column (MonoQ). Gradient elution (200 mM-500 mM NaCl) yielded pure protein. This protein was concentrated and dialyzed against dialysis buffer (20 mM Tris-HCl, 2 mM TCEP) overnight. The protein was aliquoted and frozen at −80° C. until further use.
Sirtuin modulating compounds that activated SIRT1 were identified using the assay described above and are shown below in Table 1. The EC1-5 values for the activating compounds are represented by A′ (EC1.5<250 nM), A (EC1.5≧250 nM and ≦1 uM), B (EC1.5>1 and ≦10 uM), or C (EC1.5>10 uM). The percent maximum fold activation is represented by A (Fold activation≧300%), B (Fold Activation≧150% and <300%), or C (Fold Activation<150%).

Turning to `CC(C)(C)N1CCC(Nc2cc(C(=O)Nc3ccccc3-c3nc4cccnc4s3)nc(-c3ccccc3)n2)CC1` [Compound 125], the “FOLD ACT. (percent maximum fold activation)” value is on record as “A (Fold activation≧300%)” and the EC1.5 entry is given as “A′ (EC1.5<250 nM)”.

For `COC(=O)CNc1cc(C(=O)Nc2ccccc2-c2nc3cccnc3s2)nc(-c2ccccc2)n1` [Compound 17], the “FOLD ACT. (percent maximum fold activation)” value is reported as “A (Fold activation≧300%)”; the EC1.5 entry is “A (EC1.5≧250 nM and ≦1 uM)”.

For `CN(C)c1cc(C(=O)Nc2ccccc2-c2nc3cccnc3s2)nc(-c2ccccc2)n1` [Compound 38], the “FOLD ACT. (percent maximum fold activation)” value is “B (Fold Activation≧150% and <300%)”; the EC1.5 entry was “B (EC1.5>1 and ≦10 uM)”.

With `CC(C)N1CCC(Nc2cc(C(=O)Nc3ccccc3-c3nc4cccnc4s3)nc(-c3ccccc3)n2)CC1` [Compound 114], the “FOLD ACT. (percent maximum fold activation)” value is given as “A (Fold activation≧300%)” and the EC1.5 result was “A′ (EC1.5<250 nM)”.

With `COCCN(C)c1cc(C(=O)Nc2ccccc2-c2nc3ccncc3s2)nc(-c2ccccc2)n1` [Compound 29], the “FOLD ACT. (percent maximum fold activation)” value is listed as “A (Fold activation≧300%)” and the EC1.5 entry is recorded as “A′ (EC1.5<250 nM)”.

For `Cc1nc(CCNc2cc(C(=O)Nc3ccccc3-c3nc4cccnc4s3)nc(-c3ccccc3)n2)cs1` [Compound 53], the “FOLD ACT. (percent maximum fold activation)” value was “B (Fold Activation≧150% and <300%)”; the EC1.5 result is “A (EC1.5≧250 nM and ≦1 uM)”.

Take `O=C(Nc1ccccc1-c1nc2cccnc2s1)c1cc(NC2CCN(Cc3ccccc3)CC2)nc(-c2ccccc2)n1` [Compound 113]: the “FOLD ACT. (percent maximum fold activation)” value is “B (Fold Activation≧150% and <300%)”; the EC1.5 entry is “A (EC1.5≧250 nM and ≦1 uM)”.

Consider `O=C(Nc1ccccc1-c1nc2cccnc2s1)c1cc(N2CCN3CCC[C@H]3C2)cc(-c2ccccc2)n1` [Compound 144], for which the “FOLD ACT. (percent maximum fold activation)” value is given as “A (Fold activation≧300%)” and the EC1.5 result is on record as “A′ (EC1.5<250 nM)”.

`CCSCCNc1cc(C(=O)Nc2ccccc2-c2nc3cccnc3s2)nc(-c2ccccc2)n1` [Compound 73]: the “FOLD ACT. (percent maximum fold activation)” value was “B (Fold Activation≧150% and <300%)”; the EC1.5 result is “B (EC1.5>1 and ≦10 uM)”.

For `Cc1cccc(-c2nc(C(=O)Nc3ccccc3-c3nc4cccnc4s3)cc(N3CCNCC3)n2)c1` [Compound 139], the “FOLD ACT. (percent maximum fold activation)” value is “A (Fold activation≧300%)” and the EC1.5 entry is given as “A′ (EC1.5<250 nM)”.

In the case of `O=C(Nc1ccccc1-c1nc2cccnc2s1)c1cc(NCC2CCCCN2)nc(-c2ccccc2)n1` (centres unmarked) [Compound 89], the “FOLD ACT. (percent maximum fold activation)” value is “A (Fold activation≧300%)” and the EC1.5 entry was “A′ (EC1.5<250 nM)”.

Take `O=C(Nc1ccccc1-c1nc2cccnc2s1)c1cc(OCCN2CCOCC2)cc(-c2ccccc2)n1` [Compound 13]: the “FOLD ACT. (percent maximum fold activation)” value is recorded as “A (Fold activation≧300%)”; the EC1.5 entry is “A (EC1.5≧250 nM and ≦1 uM)”.

For the compound `CN1CCN(c2cc(C(=O)Nc3ccccc3-c3nc4cccnc4s3)nc(-c3ccccc3)n2)CC1=O` [Compound 151], the “FOLD ACT. (percent maximum fold activation)” value was “B (Fold Activation≧150% and <300%)”; the EC1.5 entry is reported as “A′ (EC1.5<250 nM)”.

As to `O=C(Nc1ccccc1-c1nc2cccnc2s1)c1cc(CN2CCCC2)nc(-c2ccccc2)n1` [Compound 11], the “FOLD ACT. (percent maximum fold activation)” value is on record as “A (Fold activation≧300%)”; the EC1.5 entry was “B (EC1.5>1 and ≦10 uM)”.

Regarding `O=C(Nc1ccccc1-c1nc2cccnc2s1)c1cc(NCCCn2ccnc2)cc(-c2ccccc2)n1` [Compound 141], the “FOLD ACT. (percent maximum fold activation)” value was “A (Fold activation≧300%)” and the EC1.5 result is recorded as “A′ (EC1.5<250 nM)”.

In the case of `Cl.O=C(Nc1ccccc1-c1nc2cccnc2s1)c1cc(NCCN2CCOCC2)nc(-c2ccccc2)n1` [Compound 61], the “FOLD ACT. (percent maximum fold activation)” value is “A (Fold activation≧300%)” and the EC1.5 result is “A′ (EC1.5<250 nM)”.

Values taken from patent publication US20110009381A1, “SOLUBILIZED THIAZOLOPYRIDINES” (Sirtis Pharmaceuticals, Inc., priority 2007, published 2011).
